From ChEMBL document CHEMBL4265953, “Exploration of novel pyrrolo[2,1-f][1,2,4]triazine derivatives with improved anticancer efficacy as dual inhibitors of c-Met/VEGFR-2” (Eur J Med Chem, 2018)
Converted amounts (≈) assume the structure as drawn.

Experiments:
physchem [1] = settings: n-octanol/water
[2] = Oral bioavailability in Sprague-Dawley rat at 10 mg/kg by LC-MS analysis; format: ADME, organism-based; settings: in vivo
[3] = AUC in Sprague-Dawley rat at 2 mg/kg, iv by LC-MS analysis; format: ADME, organism-based; settings: in vivo
[4] = Cmax in Sprague-Dawley rat at 2 mg/kg, iv by LC-MS analysis; format: ADME, organism-based; parameters: dose 2 mg/kg, route intravenous; settings: in vivo
[5] = AUC in Sprague-Dawley rat at 10 mg/kg, po by LC-MS analysis; format: ADME, organism-based; settings: in vivo
[6] = Tmax in Sprague-Dawley rat at 10 mg/kg, po by LC-MS analysis; format: ADME, organism-based; settings: in vivo
[7] = Half life in Sprague-Dawley rat at 2 mg/kg, iv by LC-MS analysis; format: ADME, organism-based; settings: in vivo
[8] = Cmax in Sprague-Dawley rat at 10 mg/kg, po by LC-MS analysis; format: ADME, organism-based; parameters: dose 10 mg/kg, route oral; settings: in vivo
[9] = Clearance in Sprague-Dawley rat at 2 mg/kg, iv by LC-MS analysis; format: ADME, organism-based; settings: in vivo
physchem [10] = assay: physchem
[11] = Half life in Sprague-Dawley rat at 10 mg/kg, po by LC-MS analysis; format: ADME, organism-based; settings: in vivo
[12] = octanol/water, 0.5 h

Row | Compound | logP at 0.5 h (physchem [1]) | bioavailability [2] [%] | AUC [3] [ng·h/mL] | Cmax [4] [ng/mL] | AUC [5] [ng·h/mL] | Tmax [6] [h] | half-life [7] [h] | Cmax [8] [ng/mL] | clearance [9] [mL/min/kg] | solubility at 1 h (physchem [10]) [µg/mL] | half-life [11] [h] | logP [12]
1 | Cc1c(OCC(O)CN2CCN(C)CC2)cn2ncnc(Oc3ccc(NC(=O)C4(C(=O)Nc5ccc(F)cc5)CC4)cc3F)c12 (stereo not given) | 2.98 | 98.1 | 239 | 72.1 | 1170 | 5 | 2.16 | 129 | 139 | 20.5 (≈ 32.2 µM) | 5 | 
2 | COc1cc2nccc(Oc3ccc(NC(=O)C4(C(=O)Nc5ccc(F)cc5)CC4)cc3)c2cc1OC.O=C(O)C[C@H](O)C(=O)O [CABOZANTINIB S-MALATE] |  |  |  |  |  |  |  |  |  | 52 |  | 1.89
3 | COc1cc2nccc(Oc3ccc(NC(=O)C4(C(=O)Nc5ccc(F)cc5)CC4)cc3)c2cc1OC [CABOZANTINIB] | 3.89 |  |  |  |  |  |  |  |  | < 0.1 |  | 
